Read-outs that look alike come from different tables or passages of the source.
Tests used:
Format in all cases: in vivo
[1] = system: Western Flower Thrips (Frankliniella occidentalis); assay: Insecticidal test on western flower thrips (kidney bean leaf pieces, hatched larvae); conditions: 96 h, read-out: insecticidal efficacy (corrected mortality rate) against western flower thrips
From the text: (§1) • A: the mortality rate is 100%. • B: the mortality rate is 90 to 99%. • C: the mortality rate is 80 to 89%. • D: the mortality rate is 50 to 79%. • E: the mortality rate is 0 to 49%.
Insecticidal Test on Western Flower Thrips (Frankliniella occidentalis)
Female adults of western flower thrips were inoculated onto kidney bean leaf pieces, and allowed to lay eggs thereon for one day, then the female adults were removed. After 3 days, the hatched larvae on the leaf pieces were counted, and then the agrochemical dispersions diluted to 50 ppm or 500 ppm, each of which contained the compound described in Tables 1 to 6 as an active ingredient were applied. The number of larvae of the species surviving at 4 days after the treatment was counted, and the corrected mortality rate was calculated according to the formula shown below, and the insecticidal efficacy was evaluated according to the criteria of Test Example 1. This test was conducted in duplicate.

[2] = system: Diamondback moth (Plutella xylostella); assay: Insecticidal test on diamondback moth (dip treatment of Chinese cabbage seedlings with laid eggs); conditions: 144 h, read-out: insecticidal efficacy (corrected mortality rate) against diamondback moth
From the text: Insecticidal Test on Diamondback moth (Plutella xylostella)
Adults of diamondback moth were released onto Chinese cabbage seedlings and allowed to lay eggs thereon. At 2 days after the release of the adults, the Chinese cabbage seedlings with laid eggs were dipped for about 30 seconds in agrochemical dispersions diluted to 50 ppm or 500 ppm, each of which contained a different compound represented by the general formula (1) of the present invention as an active ingredient. After air-dried, the seedlings were kept in a thermostatic chamber at 25° C. At 6 days after the dip treatment, the number of surviving larvae per plot was counted, the corrected mortality rate was calculated according to the formula shown below, and the insecticidal efficacy was evaluated according to the criteria shown below. This test was conducted in triplicate using 10 adults of diamondback moth per plot.
as §1

[3] = system: Small Brown Planthopper (Laodelphax striatellus); assay: Insecticidal test on small brown planthopper (dipped rice seedlings, 3rd-instar larvae); conditions: 192 h, rice seedlings dipped 30 seconds, 8 days after inoculation, read-out: insecticidal efficacy (corrected mortality rate) against small brown planthopper
From the text: as §1
Insecticidal Test on Small Brown Planthopper (Laodelphax striatellus)
The compounds represented by the general formula (1) of the present invention or salts thereof were separately dispersed in water and diluted to 50 ppm or 500 ppm. Rice plant seedlings (variety: Nihonbare) were dipped in the agrochemical dispersions for 30 seconds. After air-dried, each seedling was put into a separate glass test tube and inoculated with ten 3rd-instar larvae of small brown planthopper, and then the glass test tubes were capped with cotton plugs. At 8 days after the inoculation, the numbers of surviving larvae and dead larvae were counted, the corrected mortality rate was calculated according to the formula shown below, and the insecticidal efficacy was evaluated according to the criteria of Test Example 1.

[4] = 500 ppm, 4 days after the treatment
[5] = 500 ppm, dip about 30 seconds, 6 days after treatment, 25° C.
[6] = dip about 30 seconds, 6 days after treatment, 25° C.

O=C(Nc1ccc(C(F)(F)F)cc1)C1=C(O)CN(c2ccc(C(F)(F)F)nc2)NC1=O [1-85, N-(4-trifluoromethylphenyl)-5-hydroxy-3-oxo-1-(6-(trifluoromethyl)pyridin-3-yl)-1,2,3,6-tetrahydropyridazine-4-carboxamide]
100%: mortality at 500 ppm [1] | mortality at 500 ppm [2]

CCNC(=O)N1C(=O)C(C(=O)Nc2ccc(F)cc2)=C(O)CN1c1ccc(C(F)(F)F)nc1 [3-22, N^1-ethyl-N^5-(4-fluorophenyl)-4-hydroxy-6-oxo-2-(6-(trifluoromethyl)pyridin-3-yl)-2,3-dihydropyridazine-1,5(6H)-dicarboxamide]
100%: mortality at 50 ppm ([1]; 4 days after the treatment) | mortality at 500 ppm [1, 4] | mortality at 500 ppm [3] | mortality at 500 ppm [2, 5]

CC(C)(C)OC(=O)N1C(=O)C(C(=O)Nc2ccc(F)cc2)=C(O)CN1c1ccc(C(F)(F)F)nc1 [3-308, tert-butyl 5-((4-fluorophenyl)carbamoyl)-4-hydroxy-6-oxo-2-(6-(trifluoromethyl)pyridin-3-yl)-2,3-dihydropyridazine-1(6H)-carboxylate]
100%: mortality at 50 ppm ([1]; 4 days after the treatment) | mortality at 500 ppm [1, 4] | mortality at 50 ppm [3] | mortality at 500 ppm [3] | mortality at 50 ppm [2, 6] | mortality at 500 ppm [2, 5]

CNC(=S)N1C(=O)C(C(=O)Nc2ccc(F)cc2)=C(O)CN1c1ccc(C(F)(F)F)nc1 [3-362, N-(4-fluorophenyl)-5-hydroxy-2-(methylcarbamothioyl)-3-oxo-1-(6-(trifluoromethyl)pyridin-3-yl)-1,2,3,6-tetrahydropyridazine-4-carboxamide]
100%: mortality at 50 ppm ([1]; 4 days after the treatment) | mortality at 500 ppm [1, 4] | mortality at 50 ppm [2, 6] | mortality at 500 ppm [2, 5]

COC(=O)N1C(=O)C(C(=O)Nc2ccn(C)n2)=C(O)CN1c1ccc(C#N)cc1 [3-437, methyl 2-(4-cyanophenyl)-4-hydroxy-5-((1-methyl-1H-pyrazol-3-yl)carbamoyl)-6-oxo-2,3-dihydropyridazine-1(6H)-carboxylate]
100%: mortality at 50 ppm ([1]; 4 days after the treatment) | mortality at 500 ppm [1, 4] | mortality at 50 ppm [3] | mortality at 500 ppm [3]

CCCNC(=O)N1C(=O)C(C(=O)Nc2ccn(C)n2)=C(O)CN1c1ccc(C#N)cc1 [3-563, N^5-(1-methyl-1H-pyrazol-3-yl) N^1-propyl 4-hydroxy-6-oxo-2-(4-cyanophenyl)-2,3-dihydropyridazine-1,5(6H)-dicarboxamide]
100%: mortality at 50 ppm [3] | mortality at 500 ppm [3]

CC(C)(C)OC(=O)N1C(=O)C(C(=S)Nc2ccc(F)cc2)=C(O)CN1c1ccc(C(F)(F)F)nc1 [4-34, tert-butyl 5-((4-fluorophenyl)carbamothioyl)-4-hydroxy-6-oxo-2-(6-(trifluoromethyl)pyridin-3-yl)-2,3-dihydropyridazine-1(6H)-carboxylate]
100%: mortality at 50 ppm ([1]; 4 days after the treatment) | mortality at 500 ppm [1, 4] | mortality at 50 ppm [3] | mortality at 500 ppm [3] | mortality at 50 ppm [2, 6] | mortality at 500 ppm [2, 5]

O=C(Nc1ccc(F)cc1)C1=C(S)CN(c2ccc(C(F)(F)F)nc2)NC1=O [5-2, N-(4-fluorophenyl)-5-mercapto-3-oxo-1-(6-(trifluoromethyl)pyridin-3-yl)-1,2,3,6-tetrahydropyridazine-4-carboxamide]
100%: mortality at 50 ppm ([1]; 4 days after the treatment) | mortality at 500 ppm [1, 4] | mortality at 50 ppm [3] | mortality at 500 ppm [3] | mortality at 50 ppm [2, 6] | mortality at 500 ppm [2, 5]

CC(C)(C)OC(=O)N1C(=O)C(C(=O)Nc2ccc(F)cc2)=C(S)CN1c1ccc(C(F)(F)F)nc1 [5-7, tert-butyl 5-((4-fluorophenyl)carbamoyl)-4-mercapto-6-oxo-2-(6-(trifluoromethyl)pyridin-3-yl)-2,3-dihydropyridazine-1(6H)-carboxylate]
100%: mortality at 50 ppm ([1]; 4 days after the treatment) | mortality at 500 ppm [1, 4] | mortality at 50 ppm [3] | mortality at 500 ppm [3] | mortality at 50 ppm [2, 6] | mortality at 500 ppm [2, 5]

CSC1=C(C(=O)Nc2ccc(F)cc2)C(=O)N(C(=O)OC(C)(C)C)N(c2ccc(C(F)(F)F)nc2)C1 [5-11, tert-butyl 5-((4-fluorophenyl)carbamoyl)-4-methylsulfanyl-6-oxo-2-(6-(trifluoromethyl)pyridin-3-yl)-2,3-dihydropyridazine-1(6H)-carboxylate]
100%: mortality at 50 ppm ([1]; 4 days after the treatment) | mortality at 500 ppm [1, 4] | mortality at 50 ppm [3] | mortality at 500 ppm [3] | mortality at 50 ppm [2, 6] | mortality at 500 ppm [2, 5]

N#Cc1ccc(N2CC(O)=C(C(=O)Nc3ccc(F)cc3)C(=S)N2)cn1 [6-6, 1-(6-cyanopyridin-3-yl)-N-(4-fluorophenyl)-5-hydroxy-3-thioxo-1,2,3,6-tetrahydropyridazine-4-carboxamide]
100%: mortality at 500 ppm [1, 4] | mortality at 500 ppm [3] | mortality at 500 ppm [2, 5]

Source: patent publication US20250074896A1, “ARYLTETRAHYDROPYRIDAZINE DERIVATIVE OR SALT THEREOF AND INSECTICIDAL AGENT CONTAINING THE COMPOUND AND METHOD FOR USING SAME” (NIHON NOHYAKU CO., LTD., priority 2021, published 2025)
